Measured values as given in patent US10016418B2, “Compounds useful as modulators of TRPM8” (Senomyx, Inc., priority 2010, dated 2018).

Legend:
hTRPM8 = target: T1, hTRPM8 (Homo sapiens, UniProt Q7Z2W7); assay: hTRPM8 agonist assay in a mammalian cell line stably expressing hTRPM8; type: cell-based; details: for EC50 WS-3 Ratio: EC50 ratio to WS-3
T1 construct: expressed in transfected cells
Procedure: A mammalian cell line derivative which stably expresses hTRPM8 was used in biological assays in association with testing the present compounds with cool-tasting or -feeling properties (Servant et al. US 2007/0259354 A1 and references cited therein). Typical compound concentrations tested were 100 μM, 50 μM, 10 μM, 1 μM, and 0.5 μM. The present compounds have shown strong activity as agonists of hTRPM8. Assay results for compounds are illustrated in Table 1 below. Specifically, the Examples listed in Table 1, i.e., Compounds A1 to Compounds U10 are the specific compounds, i.e., Examples, as described above.

[1] = Cool Line Scale Test (sensory panel, 15 point line scale, WS-3 reference); type: in vivo, human
Procedure: All samples made with Low Sodium Buffer (LSB) pH ˜7.1 and contain 0.1% ethanol.
Compounds are rated on a 15 point line scale where 45 μM WS-3 (N-Ethyl-p-menthane-3-carboxamide) is ranked as a 5 in cool intensity. In most cases our compounds are tested to determine at what concentration the cooling intensity is equivalent to 45 μM WS-3. In each test, the panelist is presented with a 0 μM control sample, a 45 μM WS-3 control sample and the experimental compound sample and asked to rate the cooling intensity of each sample. Panelists are also asked to rate bitterness. In the table below there was no significant bitterness detected unless otherwise noted. Also, in the table below, n represents the number of tests completed for a given experiment (#panelists x #repetitions).
All samples were prepared with Low Sodium Buffer (LSB) pH ˜7.1 and contain 0.1% ethanol

[2] = Table 1, cell line stably expressing hTRPM8
[3] = Table 7, scaffold T7, Ar phenyl vs thienyl

T1 sequence (Q7Z2W7 whole entry): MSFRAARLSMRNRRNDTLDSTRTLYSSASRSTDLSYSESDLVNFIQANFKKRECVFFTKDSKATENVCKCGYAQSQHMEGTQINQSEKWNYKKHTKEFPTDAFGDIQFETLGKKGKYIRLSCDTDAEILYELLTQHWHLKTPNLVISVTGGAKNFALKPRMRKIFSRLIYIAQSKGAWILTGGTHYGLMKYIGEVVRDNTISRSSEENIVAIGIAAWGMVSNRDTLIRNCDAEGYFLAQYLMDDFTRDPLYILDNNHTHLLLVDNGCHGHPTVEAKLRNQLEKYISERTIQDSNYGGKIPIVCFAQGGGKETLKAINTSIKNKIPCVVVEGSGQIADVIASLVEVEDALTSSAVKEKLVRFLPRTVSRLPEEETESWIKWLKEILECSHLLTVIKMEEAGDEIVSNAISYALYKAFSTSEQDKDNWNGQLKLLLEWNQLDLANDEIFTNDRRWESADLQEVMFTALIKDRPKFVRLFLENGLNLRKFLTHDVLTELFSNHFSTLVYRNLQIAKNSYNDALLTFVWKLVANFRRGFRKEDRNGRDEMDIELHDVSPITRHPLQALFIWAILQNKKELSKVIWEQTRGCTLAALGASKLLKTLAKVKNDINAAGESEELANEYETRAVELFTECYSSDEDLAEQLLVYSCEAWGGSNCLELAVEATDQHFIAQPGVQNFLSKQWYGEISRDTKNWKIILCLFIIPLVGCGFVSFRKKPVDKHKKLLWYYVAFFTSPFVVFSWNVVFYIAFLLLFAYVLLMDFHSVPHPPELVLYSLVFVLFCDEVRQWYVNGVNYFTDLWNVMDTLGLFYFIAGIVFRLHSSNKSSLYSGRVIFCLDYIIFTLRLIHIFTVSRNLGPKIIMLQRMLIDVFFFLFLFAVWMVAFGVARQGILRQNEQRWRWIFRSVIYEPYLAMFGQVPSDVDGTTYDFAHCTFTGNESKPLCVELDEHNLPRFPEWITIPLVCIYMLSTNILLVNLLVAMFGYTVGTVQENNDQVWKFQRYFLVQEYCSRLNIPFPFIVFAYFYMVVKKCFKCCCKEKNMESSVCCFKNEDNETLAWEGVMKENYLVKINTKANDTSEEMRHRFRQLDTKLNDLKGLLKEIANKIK

CCN(Cc1cccs1)C(=O)/C=C/c1ccc2c(c1)OCO2
EC50 (hTRPM8; Table 8, scaffold T8): > 1 nM

O=C(COc1ccc2c(c1)CCC2)N(Cc1cccs1)c1cc[nH]n1 [Example A1, 2-(2,3-dihydro-1H-inden-5-yloxy)-N-(1H-pyrazol-3-yl)-N-(thiophen-2-ylmethyl)acetamide]
EC50 WS-3 Ratio (hTRPM8; Table 1): 782471
EC50 (hTRPM8; [2]): 0.009 nM

Cc1c[nH]nc1N(Cc1cccs1)C(=O)COc1ccc2c(c1)CCC2 [Example B1, 2-(2,3-dihydro-1H-inden-5-yloxy)-N-(4-methyl-1H-pyrazol-3-yl)-N-(thiophen-2-ylmethyl)acetamide]
EC50 WS-3 Ratio (hTRPM8; Table 1): 1000000
EC50 (hTRPM8; [2]): 0.001 nM
Sensory Results: cooling compared with 0 μM WS-3 ([1]; compound at 5 μM): Panelists found 5 μM Compound B2 was significantly more cooling

O=C(COc1ccc2c(c1)CCC2)N(Cc1cccs1)c1cn[nH]c1 [Example C1, 2-(2,3-dihydro-1H-inden-5-yloxy)-N-(1H-pyrazol-4-yl)-N-(thiophen-2-ylmethyl)acetamide]
EC50 WS-3 Ratio (hTRPM8; Table 1): 502141
EC50 (hTRPM8; [2]): 0.017 nM

Cc1ccc(OCC(=O)N(Cc2cccs2)c2ccn[nH]2)cc1 [Example F1, N-(1H-pyrazol-5-yl)-N-(thiophen-2-ylmethyl)-2-(p-tolyloxy)acetamide]
EC50 WS-3 Ratio (hTRPM8; Table 1): 21178
EC50 (hTRPM8; [2]): 0.205 nM
Average Cooling ([1]; Table 4, 3 μM in LSB pH ~7.1, 0.1% ethanol, n = 28): 5.1
Sensory Results: cooling compared with 0 μM WS-3 ([1]; compound at 3 μM): Panelists found 3 μM Compound F1 was significantly more cooling
Sensory Results: cooling compared with 45 μM WS-3 ([1]; compound at 3 μM): not significantly different in cooling

CCN(Cc1cccs1)C(=O)COc1ccc(C)cc1 [Example U1, N-ethyl-N-(thiophen-2-ylmethyl)-2-(p-tolyloxy)acetamide]
EC50 WS-3 Ratio (hTRPM8; Table 1): 577
EC50 (hTRPM8; [2]): 7.7 nM
Sensory Results: cooling compared with 0 μM WS-3 ([1]; compound at 5 μM): Panelists found 5 μM Compound U1 was significantly more cooling

CCNC(=O)C1CC(C)CCC1C(C)C (centres unmarked) [WS-3, N-Ethyl-p-menthane-3-carboxamide, reference compound]
Average Cooling ([1]; Table 2, 45 μM WS-3 control, LSB pH ~7.1, 0.1% ethanol, n = 30): 3.8
Average Cooling ([1]; Table 4, 45 μM WS-3 control, n = 28): 5.2

O=C(COc1ccc(Br)cc1)N(Cc1ccccc1)c1ccccn1 [drawing 234: 4-Br, 2-Pyridyl, Phenyl, reference compound]
EC50 (hTRPM8; [3]): 15600 nM

O=C(COc1ccc(Br)cc1)N(Cc1cccs1)c1ccccn1 [drawing 234: 4-Br, 2-Pyridyl, Thienyl]
EC50 (hTRPM8; [3]): 2270 nM

O=C(COc1ccc(Cl)cc1)N(Cc1cccs1)c1ccccn1 [drawing 234: 4-Cl, 2-Pyridyl, Thienyl]
EC50 (hTRPM8; [3]): 2320 nM

Cc1ccc(OCC(=O)N(Cc2ccccc2)c2ccccn2)cc1 [drawing 234: 4-Me, 2-Pyridyl, Phenyl, reference compound]
EC50 (hTRPM8; [3]): 4720 nM

Cc1ccc(OCC(=O)N(Cc2cccs2)c2ccccn2)cc1 [drawing 234: 4-Me, 2-Pyridyl, Thienyl]
EC50 (hTRPM8; [3]): 505 nM

CCN(Cc1ccccc1)C(=O)COc1ccc(C)cc1 [drawing 234: 4-Me, Ethyl, Phenyl, reference compound]
EC50 (hTRPM8; [3]): 776 nM

CCN(Cc1cccs1)C(=O)COc1ccc(C)cc1 [drawing 234: 4-Me, Ethyl, Thienyl]
EC50 (hTRPM8; [3]): 6.9 nM

Cc1ccc(OCC(=O)N(C)Cc2ccccc2)cc1 [drawing 234: 4-Me, Methyl, Phenyl, reference compound]
EC50 (hTRPM8; [3]): > 100000 nM

Cc1ccc(OCC(=O)N(C)Cc2cccs2)cc1 [drawing 234: 4-Me, Methyl, Thienyl]
EC50 (hTRPM8; [3]): 369 nM

CCN(Cc1ccccc1)C(=O)COc1ccccc1 [drawing 234: H, Ethyl, Phenyl, reference compound]
EC50 (hTRPM8; [3]): 9210 nM

CCN(Cc1cccs1)C(=O)COc1ccccc1 [drawing 234: H, Ethyl, Thienyl]
EC50 (hTRPM8; [3]): 1450 nM
